These results are taken from patent US10888622B2, “Nanocomplexes of modified peptides or proteins” (Trustees of Tufts College, priority 2013, dated 2021).

For the data set, the system named is B16F10 cancer cells. Briefly: In vitro protein transfection: delivery of RNase A into B16F10 cancer cells, cell viability by Alamar Blue assay. Type of data set: cell-based. As for the experimental part: Compositions A-D and Comparative Compositions A′-D′ and D″ were tested for delivery of RNase A into B16F10 cancer cells.
B16F10 cancer cells were cultured in Dulbecco's Modified Eagle Medium supplemented with 10% Fetal Bovine Serum and 1% penicillin/streptomycin at 37° C. in the presence of 5% CO2. For the protein transfection assay described below, cells were seeded in 96-well plates at a density of 10,000 cells per well a day prior to transfection.
To evaluate protein delivery efficiency, Compositions A-D and Comparative Compositions A′-D′ and D″ described in Examples 1-4 were added to B16F10 cancer cells and incubated at 37° C. for 24 hours. The protein concentration was 3.3 μg/mL in PBS. Compound EC16-63, dissolved in the same volume of PBS, was used as a control. The cell viability was determined by the Alamar Blue assay after 24 hours of incubation. All transfection studies were performed in quadruplicate.
(In general: Resazurin is reduced to fluorescent resorufin, in cell work by metabolically active cells.)

For `CCCCCCCCCCCCCCC(O)CN(C)CCCN(C)CC(O)CCCCCCCCCCCCCC` (centres unmarked) [Compound EC16-63], the “cell viability (lipid-like compound alone, control)” value (24 hours incubation, compound dissolved in same volume of PBS, no protein) was 90%. Further, the “cytotoxicity (in words)” value (lipid-like compound alone, 24 hours) is on record as “low cytotoxicity”.
